Test results taken from ChEMBL document CHEMBL1153245, “A profile of the in vitro anti-tumor activity of imidazolium-based ionic liquids” (2010).

Assays:
Assay type in all cases: functional
ACHN = test: Anticancer activity against human ACHN cells assessed cell growth at 10 uM after 48 hrs by sulforhodamine B assay relative to control
RXF 393 [1] = test: Anticancer activity against human RXF393 cells assessed cell growth at 10 uM after 48 hrs by sulforhodamine B assay relative to control
DU-145 [2] = test: Anticancer activity against human DU145 cells assessed cell growth at 10 uM after 48 hrs by sulforhodamine B assay relative to control
MCF7 [3] = test: Anticancer activity against human MCF7 cells assessed cell growth at 10 uM after 48 hrs by sulforhodamine B assay relative to control
MDA-MB-435 = test: Anticancer activity against human MDA-MB-435 cells assessed cell growth at 10 uM after 48 hrs by sulforhodamine B assay relative to control
SR [4] = test: Anticancer activity against human SR cells after 48 hrs by sulforhodamine B assay
HOP-62 = test: Anticancer activity against human HOP62 cells after 48 hrs by sulforhodamine B assay; conditions: Homo sapiens, HOP-62, 48 h
HOP-92 = test: Anticancer activity against human HOP92 cells after 48 hrs by sulforhodamine B assay; conditions: Homo sapiens, HOP-92, 48 h
NCI-H226 [5] = test: Anticancer activity against human NCI-H226 cells after 48 hrs by sulforhodamine B assay; conditions: Homo sapiens, NCI-H226, 48 h
NCI-H23 = test: Anticancer activity against human NCI-H23 cells after 48 hrs by sulforhodamine B assay; conditions: Homo sapiens, NCI-H23, 48 h
NCI-H460 = test: Anticancer activity against human NCI-H460 cells after 48 hrs by sulforhodamine B assay; conditions: Homo sapiens, NCI-H460, 48 h
COLO 205 = test: Anticancer activity against human COLO205 cells after 48 hrs by sulforhodamine B assay; conditions: Homo sapiens, COLO 205, 48 h
HCC 2998 = test: Anticancer activity against human HCC2998 cells after 48 hrs by sulforhodamine B assay; conditions: Homo sapiens, HCC 2998, 48 h
HCT-116 = test: Anticancer activity against human HCT116 cells after 48 hrs by sulforhodamine B assay; conditions: Homo sapiens, HCT-116, 48 h
KM12 = test: Anticancer activity against human KM12 cells after 48 hrs by sulforhodamine B assay; conditions: Homo sapiens, KM12, 48 h
SW-620 [6] = test: Anticancer activity against human SW620 cells after 48 hrs by sulforhodamine B assay; conditions: Homo sapiens, SW-620, 48 h
SF-295 = test: Anticancer activity against human SF295 cells after 48 hrs by sulforhodamine B assay; conditions: Homo sapiens, SF-295, 48 h
SNB-75 = test: Anticancer activity against human SNB75 cells after 48 hrs by sulforhodamine B assay
U-251 = test: Anticancer activity against human U251 cells after 48 hrs by sulforhodamine B assay; conditions: Homo sapiens, U-251, 48 h
K562 = test: Anticancer activity against human K562 cells assessed cell growth at 10 uM after 48 hrs by sulforhodamine B assay relative to control
MOLT-4 = test: Anticancer activity against human MOLT4 cells assessed cell growth at 10 uM after 48 hrs by sulforhodamine B assay relative to control
SR [7] = test: Anticancer activity against human SR cells assessed cell growth at 10 uM after 48 hrs by sulforhodamine B assay relative to control
NCI-H226 [8] = test: Anticancer activity against human NCI-H226 cells assessed cell growth at 10 uM after 48 hrs by sulforhodamine B assay relative to control
SW-620 [9] = test: Anticancer activity against human SW620 cells assessed cell growth at 10 uM after 48 hrs by sulforhodamine B assay relative to control
SF-268 = test: Anticancer activity against human SF268 cells assessed cell growth at 10 uM after 48 hrs by sulforhodamine B assay relative to control
Malme-3M = test: Anticancer activity against human MALME-3M cells assessed cell growth at 10 uM after 48 hrs by sulforhodamine B assay relative to control
HL-60(TB) = test: Anticancer activity against human HL-60(TB) cells assessed cell growth at 10 uM after 48 hrs by sulforhodamine B assay relative to control
M14 = test: Anticancer activity against human M14 cells after 48 hrs by sulforhodamine B assay; conditions: Homo sapiens, M14, 48 h
UACC-257 = test: Anticancer activity against human UACC257 cells after 48 hrs by sulforhodamine B assay
OVCAR-3 = test: Anticancer activity against human OVCAR-3 cells after 48 hrs by sulforhodamine B assay; conditions: Homo sapiens, OVCAR-3, 48 h
OVCAR-8 = test: Anticancer activity against human OVCAR8 cells after 48 hrs by sulforhodamine B assay; conditions: Homo sapiens, OVCAR-8, 48 h
SK-OV-3 = test: Anticancer activity against human SKOV3 cells after 48 hrs by sulforhodamine B assay
A498 = test: Anticancer activity against human A498 cells after 48 hrs by sulforhodamine B assay; conditions: Homo sapiens, A498, 48 h
RXF 393 [10] = test: Anticancer activity against human RXF393 cells after 48 hrs by sulforhodamine B assay; conditions: Homo sapiens, RXF 393, 48 h
SN12C = test: Anticancer activity against human SN12C cells after 48 hrs by sulforhodamine B assay; conditions: Homo sapiens, SN12C, 48 h
TK-10 = test: Anticancer activity against human TK10 cells after 48 hrs by sulforhodamine B assay; conditions: Homo sapiens, TK-10, 48 h
UO-31 = test: Anticancer activity against human UO31 cells after 48 hrs by sulforhodamine B assay; conditions: Homo sapiens, UO-31, 48 h
PC-3 = test: Anticancer activity against human PC3 cells after 48 hrs by sulforhodamine B assay; conditions: Homo sapiens, PC-3, 48 h
DU-145 [11] = test: Anticancer activity against human DU145 cells after 48 hrs by sulforhodamine B assay; conditions: Homo sapiens, DU-145, 48 h
MCF7 [12] = test: Anticancer activity against human MCF7 cells after 48 hrs by sulforhodamine B assay
MDA-MB-468 = test: Anticancer activity against human MDA-MB-468 cells after 48 hrs by sulforhodamine B assay
CCRF-CEM = test: Anticancer activity against human CCRF-CEM cells assessed cell growth at 10 uM after 48 hrs by sulforhodamine B assay relative to control
[13] = read-out: LC50 (the source's name)

## CCCCCCCCCCCCCCCCCC[n+]1ccn(C)c1.[Cl-]
ACHN
  Activity: -12.35%
RXF 393 [1]
  Activity: -28.27%
DU-145 [2]
  Activity: -7.74%
MCF7 [3]
  Activity: -33.81%
MDA-MB-435
  Activity: -56.4%
SR [4]
  GI50: 0.154 µM
SR [4]; [13]
  CC50: 3.79 µM
HOP-62
  GI50: 0.967 µM
HOP-62; [13]
  CC50: 7.8 µM
HOP-92
  GI50: 1.14 µM
HOP-92; [13]
  CC50: 6.85 µM
NCI-H226 [5]
  GI50: 0.869 µM
  LC50: 5.99 µM
NCI-H23
  GI50: 0.392 µM
NCI-H23; [13]
  CC50: 7.72 µM
NCI-H460
  GI50: 0.405 µM
  LC50: 3.92 µM
COLO 205
  GI50: 0.285 µM
COLO 205; [13]
  CC50: > 100 µM
HCC 2998
  GI50: 0.296 µM
HCC 2998; [13]
  CC50: 7.77 µM
HCT-116
  GI50: 0.343 µM
HCT-116; [13]
  CC50: > 100 µM
KM12
  GI50: 0.275 µM
KM12; [13]
  CC50: 2.96 µM
SW-620 [6]
  GI50: 0.446 µM
  LC50: 4.72 µM
SF-295
  GI50: 0.332 µM
SF-295; [13]
  CC50: 5.59 µM
SNB-75
  GI50: 0.473 µM
SNB-75; Homo sapiens, SNB-75, 48 h, read-out: LC50 (the source's name)
  CC50: 7.41 µM
U-251
  GI50: 0.372 µM
U-251; [13]
  CC50: 3.88 µM
K562
  Activity: 28.31%
MOLT-4
  Activity: 16.78%
SR [7]
  Activity: 4.33%
NCI-H226 [8]
  Activity: -54.04%
SW-620 [9]
  Activity: -45.24%
SF-268
  Activity: -45.4%
Malme-3M
  Activity: -62.43%
HL-60(TB)
  Activity: 3.76%
M14
  GI50: 0.33 µM
  LC50 (50% lethal concentration): 6.63 µM
UACC-257
  GI50: 0.125 µM
UACC-257; Homo sapiens, UACC-257, 48 h
  LC50: 6.77 µM
OVCAR-3
  GI50: 0.375 µM
  LC50 (50% lethal concentration): 4.01 µM
OVCAR-8
  GI50: 0.998 µM
  LC50: 7.41 µM
SK-OV-3; Homo sapiens, SK-OV-3, 48 h
  GI50: 1.24 µM
SK-OV-3; [13]
  CC50: > 100 µM
A498
  GI50: 1.07 µM
A498; [13]
  CC50: 8.94 µM
RXF 393 [10]
  GI50: 0.265 µM
  LC50: 4.9 µM
SN12C
  GI50: 0.679 µM
  LC50: 4.77 µM
TK-10
  GI50: 0.244 µM
  LC50: 2.77 µM
UO-31
  GI50: 0.608 µM
  LC50: 5.94 µM
PC-3
  GI50: 0.212 µM
PC-3; [13]
  CC50: 2.85 µM
DU-145 [11]
  GI50: 0.635 µM
DU-145 [11]; [13]
  CC50: 4.4 µM
MCF7 [12]
  GI50: 0.356 µM
MCF7 [12]; Homo sapiens, MCF7, 48 h
  LC50 (50% cell kill): 3.78 µM
MDA-MB-468
  GI50: 0.066 µM
MDA-MB-468; Homo sapiens, MDA-MB-468, 48 h
  LC50: 7.25 µM
CCRF-CEM
  Activity: 34.04%
